For 16 compounds, IC50 results are on record in patent publication US8791267B2, “Biaryl PDE4 inhibitors for treating inflammatory, cardiovascular and CNS disorders” (Decode Genetics EHF, priority 2007, dated 2014).

The target in one experiment is PDE4 (Homo sapiens, UniProt Q08499). As to the kind of experiment: In-vitro assay for PDE4 enzymes, real-time enzyme-coupled spectrophotometric assay (Table 9). It counts as biochemical. As to conditions: human PDE4D; activity class, Table 9; read-out: hPDE4D.
The next experiment has as its target PDE4B (Homo sapiens, UniProt Q07343). As to the kind of experiment: In-vitro assay for PDE4 enzymes, real-time enzyme-coupled spectrophotometric assay, PDE4B Activity (Table 10). Format: biochemical. As to conditions: human PDE4B (hPDE4B), enzyme-coupled spectrophotometric assay; read-out: PDE4B Activity, hPDE4B.

Chain of PDE4 (Q08499 whole entry): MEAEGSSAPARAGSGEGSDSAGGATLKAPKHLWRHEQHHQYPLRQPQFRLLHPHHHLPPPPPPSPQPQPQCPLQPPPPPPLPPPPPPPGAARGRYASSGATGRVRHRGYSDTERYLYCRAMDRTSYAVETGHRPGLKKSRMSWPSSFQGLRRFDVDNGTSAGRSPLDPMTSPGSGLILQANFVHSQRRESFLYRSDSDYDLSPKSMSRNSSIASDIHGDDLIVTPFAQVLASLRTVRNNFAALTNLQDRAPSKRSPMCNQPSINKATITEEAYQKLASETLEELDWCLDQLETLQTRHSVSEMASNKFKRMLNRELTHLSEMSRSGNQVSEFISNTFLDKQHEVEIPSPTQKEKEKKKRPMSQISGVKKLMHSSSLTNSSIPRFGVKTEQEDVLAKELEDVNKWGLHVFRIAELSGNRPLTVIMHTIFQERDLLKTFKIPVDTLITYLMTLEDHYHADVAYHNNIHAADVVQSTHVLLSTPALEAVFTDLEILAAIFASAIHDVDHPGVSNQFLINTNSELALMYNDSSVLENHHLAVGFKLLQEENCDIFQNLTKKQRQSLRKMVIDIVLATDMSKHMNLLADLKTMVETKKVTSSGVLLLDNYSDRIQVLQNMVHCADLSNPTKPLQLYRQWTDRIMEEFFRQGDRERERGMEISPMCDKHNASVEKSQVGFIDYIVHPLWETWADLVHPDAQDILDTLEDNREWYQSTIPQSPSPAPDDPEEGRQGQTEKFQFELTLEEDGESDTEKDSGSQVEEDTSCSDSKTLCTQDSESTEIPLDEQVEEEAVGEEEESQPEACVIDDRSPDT
Chain of PDE4B (Q07343 whole entry): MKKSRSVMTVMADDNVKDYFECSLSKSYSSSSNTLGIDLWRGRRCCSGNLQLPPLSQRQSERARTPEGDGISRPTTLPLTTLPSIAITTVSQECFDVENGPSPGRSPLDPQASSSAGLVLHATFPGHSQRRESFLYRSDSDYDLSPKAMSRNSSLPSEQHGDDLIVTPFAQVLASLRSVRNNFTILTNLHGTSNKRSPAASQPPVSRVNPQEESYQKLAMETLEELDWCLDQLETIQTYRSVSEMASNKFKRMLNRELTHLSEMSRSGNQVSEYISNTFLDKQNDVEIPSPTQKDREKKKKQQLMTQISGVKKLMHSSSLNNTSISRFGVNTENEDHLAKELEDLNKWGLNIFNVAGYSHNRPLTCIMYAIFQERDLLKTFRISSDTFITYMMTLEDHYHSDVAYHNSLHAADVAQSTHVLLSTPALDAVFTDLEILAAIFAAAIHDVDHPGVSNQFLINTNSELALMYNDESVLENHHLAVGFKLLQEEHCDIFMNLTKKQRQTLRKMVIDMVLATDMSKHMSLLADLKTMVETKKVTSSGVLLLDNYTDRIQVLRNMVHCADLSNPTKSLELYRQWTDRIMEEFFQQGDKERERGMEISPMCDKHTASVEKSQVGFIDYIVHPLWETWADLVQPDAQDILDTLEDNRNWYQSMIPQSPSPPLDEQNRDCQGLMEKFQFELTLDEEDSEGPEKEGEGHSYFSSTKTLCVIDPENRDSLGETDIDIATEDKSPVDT

Consider `COc1ccc(C(O)c2ccnn2C)cc1-c1ccc2c(c1)OCO2` (centres unmarked) [P-073, (3-Benzo[1,3]dioxol-5-yl-4-methoxy-phenyl)-(2-methyl-2H-pyrazol-3-yl)-methanol], for which the IC50 on PDE4 is less than 5 µM; on PDE4B, 21 to 40 µM.
In the case of `COc1ccc(Cn2cccn2)cc1-c1ccc2c(c1)OCO2` [P-074, 1-(3-Benzo[1,3]dioxol-5-yl-4-methoxy-benzyl)-1H-pyrazole], the IC50 on PDE4 is less than 5 µM; on PDE4B it was 5 to 20 µM.
On the same counts, the results for `COc1ccc(Cc2ccnn2C)cc1-c1ccc2c(c1)OCO2` [P-075, 5-(3-Benzo[1,3]dioxol-5-yl-4-methoxy-benzyl)-1-methyl-1H-pyrazole] are less than 5 µM and less than 5 µM.
As for `COc1ccc(CN2CCOC2=O)cc1-c1cccc([N+](=O)[O-])c1` [P-076, 3-(6-Methoxy-3′-nitro-biphenyl-3-ylmethyl)-oxazolidin-2-one], the IC50 at PDE4 and on PDE4B was less than 5 µM each time.
Take `COc1ccc(Cn2cccn2)cc1-c1cccc([N+](=O)[O-])c1` [P-077, 1-(6-Methoxy-3′-nitro-biphenyl-3-ylmethyl)-1H-pyrazole]: the IC50 on PDE4 and at PDE4B was less than 5 µM in each case.
As for `O=[N+]([O-])c1cccc(-c2cc(C(O)c3ccc(F)cc3)ccc2OC(F)(F)F)c1` (centres unmarked) [P-079, (4-Fluoro-phenyl)-(3′-nitro-6-trifluoromethoxy-biphenyl-3-yl)-methanol], the IC50 at PDE4 and on PDE4B was less than 5 µM each time.
For the compound `COc1ccc(Cn2cncn2)cc1-c1cccc(C#N)c1` [P-081, 2′-Methoxy-5′-[1,2,4]triazol-1-ylmethyl-biphenyl-3-carbonitrile], the IC50 was less than 5 µM on PDE4 and 5 to 20 µM at PDE4B.
As to `COc1ccc(Cn2cncn2)cc1-c1cccc(C(C)=O)c1` [P-082, 1-(2′-Methoxy-5′-[1,2,4]triazol-1-ylmethyl-biphenyl-3-yl)-ethanone], the IC50 at PDE4 was less than 5 µM; at PDE4B, 5 to 20 µM.
On to `COc1ccc(CN2CCOC2=O)cc1-c1cccc(C(F)(F)F)c1` [P-083], for which the IC50 on PDE4 and at PDE4B was 5 to 20 µM in each case.
Consider `COc1ccc(Cn2cncn2)cc1-c1cccc(OC(F)(F)F)c1` [P-084, 1-(6-Methoxy-3′-trifluoromethoxy-biphenyl-3-ylmethyl)-1H-[1,2,4]triazole], for which the IC50 at PDE4 is less than 5 µM; on PDE4B, 5 to 20 µM.
In the same order, the values of `COc1ccc(Cn2cncn2)cc1-c1cccc(SC)c1` [P-085, 1-(6-Methoxy-3′-methylsulfanyl-biphenyl-3-ylmethyl)-1H-[1,2,4]triazole] are less than 5 µM and less than 5 µM.
Consider `COc1cccc(-c2cc(Cn3cncn3)ccc2OC)c1` [P-086, 1-(6,3′-Dimethoxy-biphenyl-3-ylmethyl)-1H-[1,2,4]triazole], for which the results for the IC50 at PDE4 and at PDE4B were less than 5 µM and 5 to 20 µM, respectively.
Turning to `CCOC(=O)Cn1nc(C)c(Cc2ccc(OC)c(-c3cccc([N+](=O)[O-])c3)c2)c1C` [P-087, [4-(6-Methoxy-3′-nitro-biphenyl-3-ylmethyl)-3,5-dimethyl-pyrazol-1-yl]-acetic acid ethyl ester], the IC50 on PDE4 and at PDE4B was less than 5 µM each time.
For the compound `COc1ccc(Cc2c(C)nn(CCO)c2C)cc1-c1cccc([N+](=O)[O-])c1` [P-088, 2-[4-(6-Methoxy-3′-nitro-biphenyl-3-ylmethyl)-3,5-dimethyl-pyrazol-1-yl]-ethanol], the IC50 at PDE4 and at PDE4B was less than 5 µM in each case.
As to `COc1ccc(Cc2c(C)n[nH]c2C)cc1-c1cccc([N+](=O)[O-])c1` [P-089, 4-(6-Methoxy-3′-nitro-biphenyl-3-ylmethyl)-3,5-dimethyl-1H-pyrazole], the IC50 at PDE4 and at PDE4B was less than 5 µM each time.
Regarding `COc1ccc(Cc2c(C)nn(CC(F)(F)F)c2C)cc1-c1cccc([N+](=O)[O-])c1` [P-090, 4-(6-Methoxy-3′-nitro-biphenyl-3-ylmethyl)-3,5-dimethyl-1-(2,2,2-trifluoro-ethyl)-1H-pyrazole], the IC50 on PDE4 and at PDE4B was less than 5 µM throughout.
